From PubChem BioAssay (NCI) come the findings set out here.

Among the test systems are BT-549 breast; MCF7 breast; MDA-MB-231 breast; MDA-MB-435; NCI/ADR-RES ovarian; DLD-1 colon; DMS 114 small cell lung; DMS 273 small cell lung; M19-MEL melanoma.
Experiment in all cases: inhibition of tumour cell growth, NCI panel, 48 h

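48-hour exposure; five concentrations; linearly interpolated endpoints. At the GI50, growth is halved. TGI is the concentration that stops growth completely.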

Consider `O=c1c2ccccc2oc2ccc(OCCCCCCN3CCCCCC3)cc12`, for which the GI50 with BT-549 breast was 1.7 µM; in the assay with MCF7 breast, 1.91 µM; in the assay with MDA-MB-231 breast it was 4.19 µM; in the assay on MDA-MB-435 it was 2.53 µM; in the assay on NCI/ADR-RES ovarian, 3.73 µM. For the same compound, the TGI with BT-549 breast worked out at 5.3 µM; in the assay on MCF7 breast it was 5.53 µM; with MDA-MB-231 breast, 13 µM; in the assay with MDA-MB-435, 8.75 µM; in the assay on NCI/ADR-RES ovarian it was 24.6 µM.

For `CN(C=O)/C=C/c1cc(O)ccc1O`, the TGI was 39.4 µM with DLD-1 colon, over 100 µM in the assay with DMS 114 small cell lung, over 54.3 µM with DMS 273 small cell lung and 44.9 µM in the assay on M19-MEL melanoma.

For the compound `CCCCCCCCCCCCCCCCOC(=O)c1cc(O)cc(C(=O)OCCCCCCCCCCCCCCCC)c1`, the TGI in the assay with DMS 114 small cell lung, with DMS 273 small cell lung and in the assay on M19-MEL melanoma was over 100 µM in each case.

As for `COc1cc([N+](=O)[O-])c2ncccc2c1[N+](=O)[O-]`, the GI50 in the assay with BT-549 breast was 7.62 µM; with MCF7 breast, 3.26 µM; in the assay with MDA-MB-231 breast, 11.6 µM; with MDA-MB-435 it was 3.9 µM; in the assay on NCI/ADR-RES ovarian it was 2.8 µM. The TGI with BT-549 breast amounted to 20.2 µM; in the assay on MCF7 breast, 32.1 µM; in the assay with MDA-MB-231 breast, 24.8 µM; in the assay on MDA-MB-435 it was 15.1 µM; in the assay on NCI/ADR-RES ovarian it was 10.8 µM.

Consider `C[N+](C)(C)CC1CCCC(C[N+](C)(C)C)C1O` (configuration not stated), for which the TGI in the assay on DLD-1 colon, with DMS 114 small cell lung, in the assay on DMS 273 small cell lung and with M19-MEL melanoma was over 100 µM in each case.

Take `CN1CCN(c2nc(-c3ccncc3)nc3sc4c(c23)CCCCCC4)CC1`: the GI50 was 6.35 µM in the assay with BT-549 breast; 6.61 µM in the assay on MCF7 breast; 4.26 µM in the assay on MDA-MB-231 breast; 11.8 µM in the assay on MDA-MB-435; 8.17 µM with NCI/ADR-RES ovarian. The TGI with BT-549 breast stood at 19.9 µM; with MCF7 breast it was 20.4 µM; with MDA-MB-231 breast, 18.7 µM; in the assay on MDA-MB-435, 26 µM; in the assay with NCI/ADR-RES ovarian, 24.5 µM.

As to `CCOP(=O)(Nc1ccc2oc(=O)c3ccccc3c2c1)OCC`, the TGI in the assay on BT-549 breast, with MCF7 breast, with MDA-MB-231 breast, with MDA-MB-435 and with NCI/ADR-RES ovarian was over 100 µM each time.

Regarding `CCC1CNC(=O)CC1CC(=O)OC` (configuration not stated), the TGI with DMS 114 small cell lung is over 100 µM.

For `COc1cccc(NC(=O)C(=O)C(C(C)=O)c2nc3ccc(Cl)cc3[nH]c2=O)c1` (configuration not stated), the TGI in the assay on DLD-1 colon, in the assay on DMS 114 small cell lung, in the assay with DMS 273 small cell lung and in the assay on M19-MEL melanoma was over 100 µM throughout.

`CC(NC(=O)c1ccccc1)(C(=O)O)C(=O)O`: the TGI in the assay with BT-549 breast, in the assay with MCF7 breast, in the assay with MDA-MB-231 breast, in the assay on MDA-MB-435 and in the assay on NCI/ADR-RES ovarian was over 100 µM throughout.

For the compound `O=C(Nc1ccccc1C(=O)N/N=C(\c1ccccc1)c1ccccn1)c1ccc(F)cc1`, the GI50 in the assay on BT-549 breast was 0.436 µM; in the assay with MCF7 breast, 0.308 µM; in the assay on MDA-MB-231 breast, 0.705 µM; in the assay on MDA-MB-435 it was 0.602 µM; in the assay on NCI/ADR-RES ovarian, 0.105 µM. Besides, the TGI in the assay on BT-549 breast was over 26.7 µM; with MCF7 breast it was over 100 µM; in the assay with MDA-MB-231 breast, over 100 µM; in the assay on MDA-MB-435, over 100 µM; in the assay on NCI/ADR-RES ovarian, over 19.7 µM.

Take `O=C(Nc1cccc(NC(=O)c2cc(=O)c3ccccc3o2)n1)c1cc(=O)c2ccccc2o1`: the TGI in the assay on DLD-1 colon was over 100 µM; in the assay with DMS 114 small cell lung it was 92 µM; in the assay with DMS 273 small cell lung it was 57.8 µM; in the assay on M19-MEL melanoma, over 100 µM.

Regarding `C#CCN(Cc1ccc2nc(N)[nH]c(=O)c2c1)c1ccc(C(=O)NC(CCC(=O)O)C(=O)O)cc1` (configuration not stated), the TGI in the assay with BT-549 breast, in the assay on MCF7 breast, in the assay on MDA-MB-231 breast, in the assay on MDA-MB-435 and with NCI/ADR-RES ovarian was over 100 µM each time.

Regarding `COc1cc2c(c(OC)c1OC)-c1ccc(SC)c(=O)cc1[C@@H](NC(=O)c1ccc(Cl)cc1)CC2`, the TGI with DLD-1 colon, in the assay on DMS 273 small cell lung and with M19-MEL melanoma was over 100 µM each time.

For the compound `CC(=O)Oc1ccc(/C=N/NC(N)=S)nc1`, the GI50 in the assay on BT-549 breast is 3.4 µM; in the assay on MCF7 breast, 2.13 µM; in the assay with MDA-MB-231 breast it was 11.2 µM; in the assay on MDA-MB-435, 5.14 µM; in the assay on NCI/ADR-RES ovarian, 3.48 µM. For the same compound, the TGI in the assay with BT-549 breast was 68.9 µM; with MCF7 breast, over 100 µM; in the assay with MDA-MB-231 breast, over 100 µM; with MDA-MB-435 it was over 100 µM; with NCI/ADR-RES ovarian, over 100 µM.

As to `Cc1nc(-n2nc(-c3ccccc3)cc2-c2ccccc2)sc1C(/C=C/c1ccc([N+](=O)[O-])cc1)=N/NC(=O)c1ccncc1`, the TGI was determined as 33.2 µM with DLD-1 colon, 58.5 µM in the assay with DMS 114 small cell lung and 92.6 µM in the assay with M19-MEL melanoma.

Turning to `O=C1C=CC2(C=C1)C[C@H](NC(=O)C(F)(F)F)C(=O)O2`, the TGI is 53.1 µM in the assay with DLD-1 colon, over 100 µM in the assay with DMS 114 small cell lung and 63.8 µM in the assay on M19-MEL melanoma.

On to `Cc1cc(Cl)ccc1Nc1nc(C(F)(F)F)ccc1C(=O)N1CCN(c2cccc(Cl)c2)CC1`, for which the GI50 with BT-549 breast was over 100 µM; in the assay on MCF7 breast, 25.6 µM; in the assay on MDA-MB-231 breast, 11 µM; with MDA-MB-435 it was over 100 µM; in the assay with NCI/ADR-RES ovarian, over 100 µM. Besides, the TGI with BT-549 breast, in the assay on MCF7 breast, with MDA-MB-231 breast, in the assay on MDA-MB-435 and with NCI/ADR-RES ovarian was over 100 µM throughout.

For the compound `Oc1ccc(Cl)cc1Cc1cc(Cl)ccc1O`, the GI50 in the assay on BT-549 breast is 2.6 µM; in the assay on MCF7 breast, 2.97 µM; with MDA-MB-231 breast it was 1.65 µM; in the assay on MDA-MB-435, 2.76 µM; in the assay with NCI/ADR-RES ovarian, 2.19 µM. Also, the TGI worked out at 8.76 µM with BT-549 breast; 10.2 µM with MCF7 breast; 5.01 µM in the assay on MDA-MB-231 breast; 8.44 µM in the assay on MDA-MB-435; 6.32 µM in the assay on NCI/ADR-RES ovarian.

Regarding `CCCCCCCCCCCCOP(N)(=O)OCCCCCCCCCCCC`, the TGI in the assay on DLD-1 colon, with DMS 114 small cell lung, with DMS 273 small cell lung and with M19-MEL melanoma was over 100 µM in each case.

As to `O=S(=O)(c1ccc(O)c(C=Nc2ccc(Cl)cc2)c1)c1ccc(O)c(C=Nc2ccc(Cl)cc2)c1`, the TGI in the assay with DLD-1 colon, with DMS 114 small cell lung, with DMS 273 small cell lung and in the assay on M19-MEL melanoma was over 100 µM in each case.
